The term EC50 denotes the concentration at which the effect is half-maximal. Read a low EC50 as an effect from little substance. Usually Ki stands for the dissociation constant of the complex between target and ligand, obtained from inhibition or displacement. Higher therefore signals a looser hold on the target.

The target of assay [1] is T1, Retinoic acid receptor RXR-gamma (Mus musculus, UniProt P28705).
T1 sequence (P28705 whole entry): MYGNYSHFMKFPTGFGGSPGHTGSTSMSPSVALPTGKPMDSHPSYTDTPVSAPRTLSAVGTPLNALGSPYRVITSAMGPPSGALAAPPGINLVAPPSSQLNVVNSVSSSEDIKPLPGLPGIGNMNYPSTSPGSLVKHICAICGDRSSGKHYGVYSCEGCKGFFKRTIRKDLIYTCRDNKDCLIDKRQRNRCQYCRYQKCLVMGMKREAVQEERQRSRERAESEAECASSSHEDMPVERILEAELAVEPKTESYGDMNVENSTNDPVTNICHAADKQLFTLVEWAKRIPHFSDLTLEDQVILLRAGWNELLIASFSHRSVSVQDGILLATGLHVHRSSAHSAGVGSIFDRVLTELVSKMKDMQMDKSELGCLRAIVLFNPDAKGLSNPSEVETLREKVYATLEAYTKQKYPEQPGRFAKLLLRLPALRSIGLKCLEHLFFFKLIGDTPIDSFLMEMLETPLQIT
Nature of the assay: (§1) Effective potency in transcriptional activation assay in CV-1 cells expressing Retinoid X receptor RXR gamma. The assay is classed as functional, cell-based.

The target in assay [2] is T2, Retinoic acid receptor gamma (Homo sapiens, UniProt P13631).
T2 sequence (P13631 whole entry): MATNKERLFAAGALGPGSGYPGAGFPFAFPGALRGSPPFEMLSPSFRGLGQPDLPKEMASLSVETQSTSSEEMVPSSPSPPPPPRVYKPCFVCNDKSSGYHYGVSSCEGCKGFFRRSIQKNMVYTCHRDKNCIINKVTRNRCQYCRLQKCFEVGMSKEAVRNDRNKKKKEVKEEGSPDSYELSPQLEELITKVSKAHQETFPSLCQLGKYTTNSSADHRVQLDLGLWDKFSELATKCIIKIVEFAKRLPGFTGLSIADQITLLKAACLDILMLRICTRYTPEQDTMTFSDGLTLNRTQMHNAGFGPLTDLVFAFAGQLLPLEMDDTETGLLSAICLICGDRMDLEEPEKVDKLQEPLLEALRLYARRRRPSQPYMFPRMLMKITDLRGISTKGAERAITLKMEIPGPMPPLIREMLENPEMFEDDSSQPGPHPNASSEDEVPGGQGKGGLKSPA
As to the kind of experiment: Inhibition of [3H]-ATRA binding to Retinoic acid receptor RAR gamma.

In assay [3] the target is T1, Retinoic acid receptor RXR-gamma. As to the kind of experiment: Inhibition of [3H]9-cis-RA binding to Retinoid X receptor RXR gamma.
Assay [4] deals with T3, Retinoic acid receptor beta (Homo sapiens, UniProt P10826).
T3 sequence (P10826 whole entry): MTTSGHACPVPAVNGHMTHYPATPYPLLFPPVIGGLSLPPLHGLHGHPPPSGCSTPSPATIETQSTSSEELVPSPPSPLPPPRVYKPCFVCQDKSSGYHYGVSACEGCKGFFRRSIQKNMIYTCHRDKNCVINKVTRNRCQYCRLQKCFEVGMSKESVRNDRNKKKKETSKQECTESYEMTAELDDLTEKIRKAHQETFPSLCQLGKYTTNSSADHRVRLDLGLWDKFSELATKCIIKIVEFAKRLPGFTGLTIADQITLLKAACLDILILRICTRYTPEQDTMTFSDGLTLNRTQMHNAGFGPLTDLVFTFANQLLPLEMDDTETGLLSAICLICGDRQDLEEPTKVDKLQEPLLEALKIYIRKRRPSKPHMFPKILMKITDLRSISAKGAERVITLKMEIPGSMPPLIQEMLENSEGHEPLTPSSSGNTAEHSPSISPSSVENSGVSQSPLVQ
As to the kind of experiment: Inhibition of [3H]ATRA binding to retinoic acid receptor RAR beta.

Assay [5] has as its target T4, Retinoic acid receptor RXR-alpha (Homo sapiens, UniProt P19793).
T4 sequence (P19793 whole entry): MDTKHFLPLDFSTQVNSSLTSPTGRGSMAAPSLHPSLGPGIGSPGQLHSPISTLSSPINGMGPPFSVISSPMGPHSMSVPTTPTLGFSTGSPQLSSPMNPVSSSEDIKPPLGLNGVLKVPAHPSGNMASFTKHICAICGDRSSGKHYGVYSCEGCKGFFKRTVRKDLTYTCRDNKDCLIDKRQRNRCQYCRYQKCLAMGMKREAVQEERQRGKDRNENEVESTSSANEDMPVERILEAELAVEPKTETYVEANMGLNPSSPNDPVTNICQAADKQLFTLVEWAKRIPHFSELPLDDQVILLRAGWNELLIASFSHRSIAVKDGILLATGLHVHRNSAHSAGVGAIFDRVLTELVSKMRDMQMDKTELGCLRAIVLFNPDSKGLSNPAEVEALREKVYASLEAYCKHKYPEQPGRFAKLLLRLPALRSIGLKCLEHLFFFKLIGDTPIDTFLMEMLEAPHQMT
Nature of the assay: Inhibition of [3H]9-cis-RA binding to Retinoid X receptor RXR alpha.

The target of assay [6] is T5, Retinoic acid receptor RXR-gamma (Mus musculus) (UniProt P28705).
T5 sequence (whole entry): T1 sequence (P28705 whole entry)
As to the kind of experiment: Percent efficacy for Retinoid X receptor RXR gamma in CV-1 cell transcriptional activation assay. The assay is classed as cell-based.

Assay [7] addresses T6, Retinoic acid receptor alpha (Homo sapiens, UniProt P10276).
T6 sequence (P10276 whole entry): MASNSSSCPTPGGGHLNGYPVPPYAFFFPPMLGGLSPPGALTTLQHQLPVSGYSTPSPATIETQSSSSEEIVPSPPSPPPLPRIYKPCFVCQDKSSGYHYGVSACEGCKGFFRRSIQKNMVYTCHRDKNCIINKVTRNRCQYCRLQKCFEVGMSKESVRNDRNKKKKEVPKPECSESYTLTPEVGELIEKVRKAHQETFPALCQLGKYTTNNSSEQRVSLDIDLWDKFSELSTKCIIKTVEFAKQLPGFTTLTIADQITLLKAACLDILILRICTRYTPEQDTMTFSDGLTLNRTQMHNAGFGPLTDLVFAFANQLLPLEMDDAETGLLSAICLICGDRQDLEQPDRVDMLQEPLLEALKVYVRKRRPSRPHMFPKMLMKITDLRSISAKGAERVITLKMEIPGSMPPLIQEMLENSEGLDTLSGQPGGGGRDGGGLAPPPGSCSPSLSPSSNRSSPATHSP
Nature of the assay: Effective potency in transcriptional activation assay in CV-1 cells expressing retinoic acid receptor RAR alpha; Not active. In kind it is functional, cell-based.

Assay [8] addresses T6, Retinoic acid receptor alpha. As to the kind of experiment: Inhibition of [3H]ATRA binding to retinoic acid receptor RAR alpha.
For assay [9], the target named is T4, Retinoic acid receptor RXR-alpha. As to the kind of experiment: Effective potency in transcriptional activation assay in CV-1 cells expressing Retinoid X receptor RXR alpha. In kind it is functional, cell-based.
For assay [10], the target named is T7, Retinoic acid receptor RXR-beta (Mus musculus, UniProt P28704).
T7 sequence (P28704 whole entry): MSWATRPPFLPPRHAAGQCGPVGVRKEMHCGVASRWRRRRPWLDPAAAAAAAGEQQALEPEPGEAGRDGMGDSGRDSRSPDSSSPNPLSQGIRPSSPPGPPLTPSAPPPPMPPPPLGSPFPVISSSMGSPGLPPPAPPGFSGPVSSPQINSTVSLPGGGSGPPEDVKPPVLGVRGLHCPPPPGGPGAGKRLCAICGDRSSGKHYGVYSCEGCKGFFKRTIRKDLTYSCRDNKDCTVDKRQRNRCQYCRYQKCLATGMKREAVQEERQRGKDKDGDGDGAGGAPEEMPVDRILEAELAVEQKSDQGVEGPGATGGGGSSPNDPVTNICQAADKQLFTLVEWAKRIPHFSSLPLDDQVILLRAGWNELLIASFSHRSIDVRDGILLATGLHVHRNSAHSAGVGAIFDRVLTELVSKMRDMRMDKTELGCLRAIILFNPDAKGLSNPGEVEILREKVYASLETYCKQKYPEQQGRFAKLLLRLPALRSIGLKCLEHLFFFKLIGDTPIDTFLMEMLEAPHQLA
As to the kind of experiment: Effective potency in transcriptional activation assay in CV-1 cells expressing Retinoid X receptor RXR beta. The assay is classed as functional, cell-based.

In assay [11] the target is T8, Retinoic acid receptor RXR-beta (Mus musculus) (UniProt P28704).
T8 sequence (whole entry): T7 sequence (P28704 whole entry)
Nature of the assay: Percent efficacy for Retinoid X receptor RXR beta in CV-1 cell transcriptional activation assay. The assay is classed as functional, cell-based.

In assay [12] the target is T7, Retinoic acid receptor RXR-beta. As to the kind of experiment: Inhibition of [3H]9-cis-RA binding to Retinoid X receptor RXR beta.
Assay [13] concerns the target T3, Retinoic acid receptor beta. Conditions: cv-1; call rule not given here.
For assay [14], the target named is T2, Retinoic acid receptor gamma. As to conditions: cv-1.
The target of assay [15] is T3, Retinoic acid receptor beta. As to the kind of experiment: Effective potency in transcriptional activation assay in CV-1 cells expressing retinoic acid receptor RAR beta. In kind it is functional, cell-based.
The target of assay [16] is T1, Retinoic acid receptor RXR-gamma. The description is as §1. In kind it is cell-based.
In assay [17] the target is T2, Retinoic acid receptor gamma. Nature of the assay: Effective potency in transcriptional activation assay in CV-1 cells expressing retinoic acid receptor RAR gamma. In kind it is functional, cell-based.

A value given as a limit tells only on which side of the number the result lay.

Take `C=C1C[C@@H](/C=C/C(C)=C/C(=O)O)[C@@H](c2ccc3c(c2)C(C)(C)CCC3(C)C)C1`: the 50% effective concentration (EC50) in [1] is 204 nM; in assay [7] it was “Not Active”; in [9], 169 nM; in assay [10], 220 nM; in assay [13], “Not Active”; in [14] it was “Not Active”. Also, the Ki was more than 1000 nM in assay [2]; 161 nM in assay [3]; more than 1000 nM in [4]; 66 nM in assay [5]; more than 1000 nM in assay [8]; 556 nM in assay [12]. In addition, the results for the Efficacy in assay [6] and in assay [11] were 90% and 369%, respectively.
Consider `CC(/C=C/[C@H]1CCC[C@@H]1c1ccc2c(c1)C(C)(C)CCC2(C)C)=C\C(=O)O`, for which the inhibition constant (Ki) in [2] was more than 1000 nM; in assay [3] it was 5 nM; in [4] it was more than 1000 nM; in [5] it was 3 nM; in [8] it was more than 1000 nM; in assay [12] it was 6 nM. Further, the concentration giving a half-maximal response (EC50) in assay [15] is 637 nM; in assay [16] it was 6 nM; in assay [7] it was “Not Active”; in [17], 1290 nM; in [9], 8 nM; in [10] it was 10 nM. Also, the results for the Efficacy in [6] and in assay [11] were 70% and 110%, respectively.

(Values after ChEMBL document CHEMBL1149945, “Synthesis and structure-activity relationships of potent retinoid X receptor ligands” (Bioorg Med Chem Lett, 1997).)
